Tests used:
[1] = Antioxidant activity assessed as trolox equivalents of ABTS radical scavenging activity by TEAC assay; format: functional
[2] = test system: Radical scavenging activity; test: Antioxidant activity assessed as residual DPPH radical scavenging activity after 45 mins by spectrophotometrically; format: functional

Question: For CCCCCCCCCCCCCCOC(=O)/C=C/c1cc(OC)c(O)c(OC)c1, which Activity [1] is on record?
Answer: 1.18 mmol

Question: And the IC50 [2]?
Answer: 77.2 µM

Question: Which Activity [1] does the source give for CCCCCCCCCCCCCCOC(=O)/C=C/c1ccc(O)c(OC)c1 here?
Answer: 1.66 mmol

Question: What about the IC50 [2] of the same compound?
Answer: 110 µM

Question: For CCCCCCCCCCCCCCOC(=O)/C=C/c1ccc(O)cc1, which IC50 [2] is on record?
Answer: > 100 µM

Question: With CCCCCCCCCCCCCCCCCCOC(=O)/C=C/c1ccc(O)c(O)c1 as the compound, how does the Activity [1] read?
Answer: 1.02 mmol

Question: And the IC50 [2]?
Answer: 38 µM

Question: Which results are given for CCCCCCCCCCCCCCCCCCOC(=O)/C=C/c1ccc(O)c(OC)c1?
Answer: Activity [1]: 1.8 mmol; IC50 [2]: 117 µM

Question: With O=C(O)/C=C/c1ccc(O)cc1 [COUMARIC ACID] as the compound, how does the IC50 [2] read?
Answer: > 100 µM

Question: For CCCCCCCCCCCCCCOC(=O)/C=C/c1ccc(O)c(O)c1, which Activity [1] is on record?
Answer: 0.98 mmol

Question: What about the IC50 [2] of the same compound?
Answer: 31.9 µM

Question: With COc1cc(/C=C/C(=O)O)cc(OC)c1O [SINAPINATE] as the compound, how does the Activity [1] read?
Answer: 1.14 mmol

Question: And the IC50 [2]?
Answer: 66 µM

Question: What does the source list for CCCCCCCCCCCCCCCCCCOC(=O)/C=C/c1cc(OC)c(O)c(OC)c1?
Answer: Activity [1]: 1.16 mmol; IC50 [2]: 77.1 µM

Question: Which results are given for CCCCCCCCCCCCCCCCOC(=O)/C=C/c1ccc(O)c(O)c1?
Answer: Activity [1]: 0.96 mmol; IC50 [2]: 33 µM

Question: What does the source list for O=C(O)/C=C/c1ccc(O)c(O)c1 [CAFFEIC ACID]?
Answer: Activity [1]: 0.95 mmol; IC50 [2]: 34.1 µM

Question: What does the source list for COc1cc(/C=C/C(=O)O)ccc1O [FERULATE]?
Answer: Activity [1]: 1.76 mmol; IC50 [2]: 112 µM
